Experimental data from ChEMBL document CHEMBL4673211, “A new Chlorin formulation promotes efficient photodynamic action in choriocapillaris of rabbit's eyes” (Bioorg Med Chem Lett, 2018).
The source made the active and inactive calls. No cut-off for these calls is given here.

Key:
[1] = Toxicity in New Zealand rabbit assessed as effect on renal profile pretreated with compound at 6 mg/m2, iv followed by diode laser irradiation at 650 nm measured after 24 hrs by fluorescein angiogram; assay type: organism-based, Oryctolagus cuniculus; conditions: in vivo, 0.65 µM, dose 6 mg/m2, time 24 hrs
[2] = Toxicity in New Zealand rabbit assessed as retinal damage in left eye pretreated with compound at 6 mg/m2, iv followed by diode laser irradiation at 650 nm measured after 24 hrs by fluorescein angiogram; assay type: organism-based, Oryctolagus cuniculus; conditions: in vivo, 0.65 µM, dose 6 mg/m2, time 24 hrs
Oryctolagus cuniculus [3] = assay: Photodynamic activity in New Zealand rabbit assessed as induction of choriocapillaris occlusion in left eye pretreated with compound at 6 mg/m2, iv followed by diode laser irradiation at 650 nm by indirect ophthalmoscopy; assay type: functional, organism-based
Oryctolagus cuniculus [4] = assay: Photodynamic activity in New Zealand rabbit assessed as blood flow obstruction causing hypo-fluorescent lesion in left eye pretreated with compound at 6 mg/m2, iv followed by diode laser irradiation at 650 nm measured after 24 hrs by fluorescein angiogram; assay type: functional, organism-based; conditions: dose 6.0 mg/m2, time 24.0 hrs
[5] = Photoactivity of the compound
Oryctolagus cuniculus [6] = assay: Photodynamic activity in New Zealand rabbit assessed as outer blood-retinal barrier breakdown causing hyper-fluorescence in left eye pretreated with compound at 6 mg/m2, iv followed by diode laser irradiation at 650 nm measured after 24 hrs by fluorescein angiogram; assay type: functional, organism-based; conditions: dose 6.0 mg/m2, time 24.0 hrs
[7] = Induction of singlet oxygen generation assessed as singlet oxygen quantum yield using liposome formulated compound; assay type: functional
Oryctolagus cuniculus [8] = assay: Photodynamic activity in New Zealand rabbit assessed as vascular occlusion causing hypo-fluorescent lesion in left eye pretreated with compound at 6 mg/m2, iv followed by diode laser irradiation at 650 nm measured after 24 hrs by fluorescein angiogram; assay type: functional, organism-based; conditions: dose 6.0 mg/m2, time 24.0 hrs
[9] = Aggregation property of the compound in toluene at 130 degreeC under inert atmosphere; assay type: physicochemical
[10] = Induction of singlet oxygen generation in 9:1 acetonitrile/water mixture assessed as singlet oxygen quantum yield irradiated with 532 nanometer laser light; assay type: functional
[11] = Toxicity in New Zealand rabbit assessed as effect on hepatic profile pretreated with compound at 6 mg/m2, iv followed by diode laser irradiation at 650 nm measured after 24 hrs by fluorescein angiogram; assay type: organism-based, Oryctolagus cuniculus; conditions: in vivo, 0.65 µM, dose 6 mg/m2, time 24 hrs
Oryctolagus cuniculus [12] = assay: Photodynamic activity in New Zealand rabbit assessed as appearance of pallor area of one qaurter-diameter disc shaped in left eye pretreated with compound at 6 mg/m2, iv followed by diode laser irradiation at 650 nm measured after 24 hrs by retinography; assay type: functional, organism-based; conditions: dose 6.0 mg/m2, time 24.0 hrs

Question: With `C=Cc1c(C)c2cc3nc(cc4[nH]c(cc5nc(cc1[nH]2)[C@@]1(C)C5=CC[C@H]2C(=O)N(c5ccc([N+](=O)[O-])cc5)C(=O)[C@H]21)c(C)c4CCC(=O)OC)C(CCC(=O)OC)=C3C` as the compound, how does the Activity [1] read?
Answer: Non-Toxic

Question: What about the Activity [2] of the same compound?
Answer: Non-Toxic

Question: And the Activity (Oryctolagus cuniculus [3])?
Answer: Active

Question: And the Activity (Oryctolagus cuniculus [4])?
Answer: Active

Question: What about the Activity [5] of the same compound?
Answer: Active

Question: What about the Activity (Oryctolagus cuniculus [6]) of the same compound?
Answer: Active

Question: What about the Activity [7] of the same compound?
Answer: 0.5

Question: What about the Activity (Oryctolagus cuniculus [8]) of the same compound?
Answer: Active

Question: What about the Activity [9] of the same compound?
Answer: Not Active

Question: And the Activity [10]?
Answer: 0.6

Question: What about the Activity [11] of the same compound?
Answer: Non-Toxic

Question: What about the Activity (Oryctolagus cuniculus [12]) of the same compound?
Answer: Active

Question: Which Activity [1] does the source give for `C=CC1=C(C)c2cc3[nH]c(cc4nc(cc5[nH]c(cc1n2)c(C)c5CCC(=O)OC)C(CCC(=O)OC)=C4C)[C@@]1(C)C3=CCC2C(=O)N(c3ccc([N+](=O)[O-])cc3)C(=O)C21` (some centres undefined) here?
Answer: Non-Toxic

Question: What about the Activity [2] of the same compound?
Answer: Non-Toxic

Question: And the Activity (Oryctolagus cuniculus [3])?
Answer: Active

Question: And the Activity (Oryctolagus cuniculus [4])?
Answer: Active

Question: What about the Activity [5] of the same compound?
Answer: Active

Question: What about the Activity (Oryctolagus cuniculus [6]) of the same compound?
Answer: Active

Question: What about the Activity [7] of the same compound?
Answer: 0.5

Question: What about the Activity (Oryctolagus cuniculus [8]) of the same compound?
Answer: Active

Question: What about the Activity [9] of the same compound?
Answer: Not Active

Question: What about the Activity [10] of the same compound?
Answer: 0.6

Question: And the Activity [11]?
Answer: Non-Toxic

Question: What about the Activity (Oryctolagus cuniculus [12]) of the same compound?
Answer: Active
